Source: article PMC11786100, “Chronic GIPR agonism results in pancreatic islet GIPR functional desensitisation” (Molecular Metabolism, 2025)

Experiments:
SNAP-tagged mouse GIPR = target: T1, SNAP-tagged mouse GIPR (Mus musculus, UniProt Q0P543); test: Internalisation and receptor surface expression assays in AD-293 cells; format: cell-based; settings: 1 μM, 1-hour treatment, BG-S-S-649/Mesna, n = 3–4
T1 construct: host or cells: AD-293
T1 sequence (Q0P543 19-460): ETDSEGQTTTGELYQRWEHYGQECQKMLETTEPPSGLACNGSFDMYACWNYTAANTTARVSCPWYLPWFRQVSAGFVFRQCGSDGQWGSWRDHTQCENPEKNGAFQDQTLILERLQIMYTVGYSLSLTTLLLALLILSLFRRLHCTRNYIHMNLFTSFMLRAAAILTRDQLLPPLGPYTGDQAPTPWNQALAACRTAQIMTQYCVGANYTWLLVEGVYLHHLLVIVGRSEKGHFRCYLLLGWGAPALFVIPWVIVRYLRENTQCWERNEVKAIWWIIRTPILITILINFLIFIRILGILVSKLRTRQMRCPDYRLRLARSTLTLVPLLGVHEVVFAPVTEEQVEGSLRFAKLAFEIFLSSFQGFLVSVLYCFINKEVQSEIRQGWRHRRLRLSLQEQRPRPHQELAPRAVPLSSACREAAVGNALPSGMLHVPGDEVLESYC
Protocol: AD-293 cells were transfected with desired plasmid DNA encoding a SNAP-tagged G-protein coupled receptor (GPCR) 24 h prior to assay. For 1 h internalisation assays, cells were labelled for 10 min with cleavable SNAP-tag probe BG-S-S-649 (New England BioLabs, US). Following 1 h treatment with specified peptide, cells were imaged at baseline and after addition of 2-mercaptoethane sulfonate (Mesna). For 4-hour GPCR surface expression assays, cells were treated with the specified peptide for 4 h, prior to 10-minute labelling with BG-S-S-649 and imaging.
AD-293 cells were added to a 96-well plate and maintained in 200 μl complete DMEM. […]
For 1 hour internalisation assays, cells were labelled with cleavable SNAP-tag probe BG-S-S-649 (New England BioLabs, US) in complete DMEM for 10 minutes prior to washing and 1 hour treatment with specified peptide, reconstituted in DMEM + 0.1% BSA. […] GPCR internalisation was quantified as the cell fluorescence following Mesna addition (representing internalised GPCR), corrected for the baseline cell fluorescence (representing total cellular GPCR).
For 4-hour GPCR surface expression assays, cells were treated with specified peptide for 4 hours in complete DMEM prior to labelling with BG-S-S-649. […] GPCR surface expression following peptide treatment was quantified as cell fluorescence as a percentage of cell fluorescence following vehicle treatment.

mouse GLP-1R = target: T2, mouse GLP-1R (Mus musculus, UniProt O35659); test: HTRF cAMP assay in transiently transfected AD-293 cells; format: cell-based; settings: 30 min stimulation, n = 3–5
T2 construct: Plasmids encoding full length, wild-type human or mouse GLP-1R, GIPR or glucagon receptor (GCGR) in the pcDNA5/FRT vector; host or cells: AD-293
T2 sequence (O35659 22-463): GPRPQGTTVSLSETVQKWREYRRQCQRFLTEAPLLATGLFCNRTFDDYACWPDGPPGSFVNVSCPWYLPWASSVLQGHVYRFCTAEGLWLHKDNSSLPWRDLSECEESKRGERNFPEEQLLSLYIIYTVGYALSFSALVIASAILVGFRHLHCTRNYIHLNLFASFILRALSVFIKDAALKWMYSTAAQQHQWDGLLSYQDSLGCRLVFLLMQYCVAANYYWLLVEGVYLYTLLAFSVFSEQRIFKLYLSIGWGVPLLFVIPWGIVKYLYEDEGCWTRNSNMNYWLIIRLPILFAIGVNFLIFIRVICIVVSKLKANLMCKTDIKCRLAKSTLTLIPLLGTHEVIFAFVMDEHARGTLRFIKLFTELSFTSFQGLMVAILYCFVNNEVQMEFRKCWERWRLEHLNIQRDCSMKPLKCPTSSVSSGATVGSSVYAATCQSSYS
Protocol: (§1) AD-293 cells were transfected with desired plasmid DNA 24 h prior to cAMP quantification using the cAMP-Gs Dynamic 2 kit (Cisbio, France), as per manufacturer's protocol. Full details are provided in the supplementary methods.
(§2) AD-293 cells were added to a 12-well plate and maintained in 2 ml complete DMEM. 1 μg of specified plasmid DNA was added to each well alongside Lipofectamine 2000 (Thermo Fisher, UK). cAMP production was quantified 24 hours following transfection using homogenous time resolved fluorescence (HTRF), specifically the cAMP-Gs Dynamic 2 kit (Cisbio, France). Peptides and cells were diluted in DMEM + 1% P/S + 0.1% BSA. For peptide stability testing, cells, fresh peptide and peptide incubated with dispersed islet cells were diluted in RPMI-1640 (Thermo Fisher, UK) + 10% FBS + 1% P/S. 10 μl of peptide and 10 μl of cell suspension were added in duplicate to an opaque 96-well plate (Grenier Bio-One, Austria) and incubated at 37°C for 30 minutes. 10 μl of cAMP-d2 and anti-cAMP cryptate, both diluted in lysis buffer, were added in quick succession as per the manufacturer’s protocol. The plates were then incubated at room temperature for 45 minutes and read using the SpectraMax i3x (Molecular Devices, US).

human GLP-1R = target: T3, human GLP-1R (Homo sapiens, UniProt P43220); test: as above; format: cell-based; settings: 30 min stimulation, n = 3–5
T3 construct: Plasmids encoding full length, wild-type human or mouse GLP-1R, GIPR or glucagon receptor (GCGR) in the pcDNA5/FRT vector; host or cells: AD-293
T3 sequence (P43220 24-463): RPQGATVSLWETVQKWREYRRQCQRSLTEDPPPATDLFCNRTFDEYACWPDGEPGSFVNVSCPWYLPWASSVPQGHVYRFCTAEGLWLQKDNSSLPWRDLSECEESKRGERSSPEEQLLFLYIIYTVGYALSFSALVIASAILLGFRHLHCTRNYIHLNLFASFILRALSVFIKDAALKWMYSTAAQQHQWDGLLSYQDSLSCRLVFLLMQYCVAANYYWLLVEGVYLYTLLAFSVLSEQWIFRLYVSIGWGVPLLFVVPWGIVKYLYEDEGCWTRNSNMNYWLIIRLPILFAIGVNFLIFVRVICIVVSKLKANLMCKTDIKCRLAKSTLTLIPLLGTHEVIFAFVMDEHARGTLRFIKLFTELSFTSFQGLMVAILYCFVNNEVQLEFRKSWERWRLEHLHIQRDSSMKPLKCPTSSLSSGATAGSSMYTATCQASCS
Protocol: as §1, §2

human GCGR = target: T4, human GCGR (Homo sapiens, UniProt P47871); test: as above; format: cell-based; settings: 30 min stimulation, n = 3–5
T4 construct: Plasmids encoding full length, wild-type human or mouse GLP-1R, GIPR or glucagon receptor (GCGR) in the pcDNA5/FRT vector; host or cells: AD-293
T4 sequence (P47871 26-477): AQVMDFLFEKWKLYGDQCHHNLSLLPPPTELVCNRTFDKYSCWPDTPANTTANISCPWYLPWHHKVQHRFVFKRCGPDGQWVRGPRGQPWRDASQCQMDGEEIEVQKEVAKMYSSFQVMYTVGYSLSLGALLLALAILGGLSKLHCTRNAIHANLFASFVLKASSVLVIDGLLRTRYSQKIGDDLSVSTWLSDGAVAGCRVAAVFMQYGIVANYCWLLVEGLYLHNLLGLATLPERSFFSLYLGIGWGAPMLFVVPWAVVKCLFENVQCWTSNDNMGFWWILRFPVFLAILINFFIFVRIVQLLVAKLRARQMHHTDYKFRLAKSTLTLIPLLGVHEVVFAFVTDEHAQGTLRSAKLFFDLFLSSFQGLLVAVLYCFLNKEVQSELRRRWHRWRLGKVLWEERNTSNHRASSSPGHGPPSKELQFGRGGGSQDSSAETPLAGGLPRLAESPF
Protocol: as §1, §2

[1] = Pharmacokinetic study in pigs; format: in vivo; settings: 0.5 mg/pig subcutaneously, male large white pigs, n = 3
Protocol: Pharmacokinetic testing of GIP108, administered subcutaneously at 0.5 mg/pig in male large white pigs, was outsourced to Pharmaron Ltd., UK. Full details are stated elsewhere.

mouse SNAP-tagged GLP-1R = target: T5, mouse SNAP-tagged GLP-1R (Mus musculus, UniProt O35659); test: β-arrestin-2 activation assay (Borealis sensor) in AD-293 cells; format: cell-based; settings: 10 nM, 30-minute stimulation, n = 5–6
T5 construct: host or cells: AD-293
T5 sequence (O35659 22-463): T2 sequence (O35659 22-463)
Protocol: AD-293 cells were transfected with desired plasmid DNA encoding a SNAP-tagged GPCR alongside transduction of Bacmam viral particles encoding the Borealis β-arrestin-2 sensor (Montana Molecular, US) and GRK5 (Montana Molecular, US) 24 h prior to assay. Cells were labelled for 10 min with BG-S-S-649 and imaged at baseline and for 30 min following peptide stimulation. Borealis arrestin sensor fluorescence in BG-S-S-649 labelled cells (representing GPCR expressing cells) was quantified and expressed as a % change from baseline. Full details are provided in the supplementary methods.
AD-293 cells were added to a 96-well plate and maintained in 200 μL complete DMEM. […]
Cells were labelled with cleavable SNAP-tag probe BG-S-S-649 in complete DMEM for 10 minutes prior to washing and imaging. […] Cells were imaged at baseline, registering both BG-S-S-649 fluorescence and borealis arrestin sensor fluorescence. Borealis arrestin sensor fluorescence was then imaged for 30 minutes after peptide addition in intervals of 5 minutes. Borealis arrestin sensor fluorescence in BG-S-S-649 labelled cells was quantified using Fiji v1.54f (NIH) and expressed as a % change from baseline.

Compound | receptor internalisation compared to vehicle (SNAP-tagged mouse GIPR) | cAMP activation of mouse GLP-1R (mouse GLP-1R) | cAMP activation of human GLP-1R (human GLP-1R) | cAMP activation of human GCGR (human GCGR) | half-life [1] | β-arrestin-2 activation compared to vehicle control (mouse SNAP-tagged GLP-1R)
CC[C@H](C)[C@H](NC(=O)[C@H](CO)NC(=O)[C@H](Cc1ccc(O)cc1)NC(=O)[C@H](CC(=O)O)NC(=O)[C@H](CO)NC(=O)[C@@H](NC(=O)[C@H](Cc1ccccc1)NC(=O)[C@@H](NC(=O)CNC(=O)[C@H](CCC(=O)O)NC(=O)C(C)(C)NC(=O)[C@@H](N)Cc1ccc(O)cc1)[C@@H](C)O)[C@@H](C)CC)C(=O)N[C@@H](C)C(=O)N[C@@H](CC(C)C)C(=O)N[C@@H](CC(=O)O)C(=O)N[C@@H](CCCCN)C(=O)N[C@H](C(=O)N[C@@H](Cc1c[nH]cn1)C(=O)N[C@@H](CCC(N)=O)C(=O)N[C@@H](CCC(N)=O)C(=O)N[C@@H](CC(=O)O)C(=O)N[C@@H](Cc1ccccc1)C(=O)N[C@H](C(=O)N[C@@H](CC(N)=O)C(=O)N[C@@H](Cc1c[nH]c2ccccc12)C(=O)N[C@@H](CC(C)C)C(=O)N[C@@H](CC(C)C)C(=O)N[C@@H](C)C(=O)N[C@@H](CCC(N)=O)C(=O)N[C@@H](CCCCN)C(=O)NCC(=O)N[C@@H](CCCCNC(=O)CC[C@H](NC(=O)CCCCCCCCCCCCCCCCCCC(=O)O)C(=O)O)C(=O)N[C@@H](CCCCN)C(=O)N[C@@H](CC(N)=O)C(=O)N[C@@H](CC(=O)O)C(=O)N[C@@H](Cc1c[nH]c2ccccc12)C(=O)N[C@@H](CCCCN)C(=O)N[C@@H](Cc1c[nH]cn1)C(=O)N[C@@H](CC(N)=O)C(=O)N[C@H](C(=O)N[C@H](C(=O)N[C@@H](CCC(N)=O)C(=O)O)[C@@H](C)O)[C@@H](C)CC)C(C)C)[C@@H](C)CC [GIP108] | did not increase mouse GIPR internalisation | minimal activation | minimal activation | minimal activation | extended half-life | 
GLP-1(7–36)·NH2 |  |  |  |  |  | significant β-arrestin-2 activation
